As usually defined, the IC50 is the concentration that gives 50% inhibition.

The assay concerns the target T1, human PF4 (Homo sapiens, UniProt P02776).
T1 construct: PF4 is a 70 amino acid, lysine-rich 7.8 kDa platelet-specific protein; made in house; host or cells: Escherichia coli BL21DE3 pLysS (pT7-7) and/or Drosophila S2 cells
T1 sequence (P02776 32-101): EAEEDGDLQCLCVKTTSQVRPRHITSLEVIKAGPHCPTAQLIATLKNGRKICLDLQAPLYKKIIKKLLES
Description: Inhibition of PF4 tetramer formation (BS3 cross-linking, SDS-PAGE). In kind it is biochemical. The following applies: for IC50: read-out: IC50 of PF4 tetramer formation inhibition; for inhibition at 5 µM: 5 μM inhibitor; for inhibition at 10 µM: 10 μM inhibitor (column A). The method in brief:
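Monomer, dimer, trimer and tetramer fractions were quantified by densitometry after reducing 12% SDS-PAGE of BS3-cross-linked (0.2 mM, 30 min, room temperature) PF4. Before cross-linking, 10 μg/ml E. coli-expressed human WT PF4 in PBS was exposed to compound for 15 min at 37° C or 60 min at room temperature; controls lacked compound.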

Where [1] appears, read: 1 μM inhibitor, read-out: % inhibition of PF4 tetramer formation at single concentration of inhibitor.
The mark [2] stands for this setting: 3 μM inhibitor (column A), read-out: % inhibition of PF4 tetramer formation at single concentration of inhibitor.
The mark [3] stands for this setting: read-out: % inhibition of PF4 tetramer formation at single concentration of inhibitor.

Take `CC(=O)NCC(=O)C1C(=O)c2ccc(Oc3ccc4c(c3)C(=O)C(C(=O)CNC(C)=O)C4=O)cc2C1=O` (stereo not shown) [Example 298, N-[2-(5-{[2-(2-acetamidoacetyl)-1,3-dioxo-2,3-dihydro-1H-inden-5-yl]oxy}-1,3-dioxo-2,3-dihydro-1H-inden-2-yl)-2-oxoethyl]acetamide]: the “% inhibition of PF4 tetramer formation at single concentration of inhibitor” value reads like this: (1 μM inhibitor, 1 µM) 32%; (3 μM inhibitor (column A), 3 µM) 60%.

Turning to `CC(C)(C)OC(=O)N1CC[C@H]1C(=O)C1C(=O)c2ccc(S(=O)(=O)c3ccc4c(c3)C(=O)C(C(=O)[C@@H]3CCN3C(=O)OC(C)(C)C)C4=O)cc2C1=O` (stereo partly drawn) [Example 138, tert-butyl (2S)-2-[5-({2-[(2S)-1-[(tert-butoxy)carbonyl]azetidine-2-carbonyl]-1,3-dioxo-2,3-dihydro-1H-inden-5-yl}sulfonyl)-1,3-dioxo-2,3-dihydro-1H-indene-2-carbonyl]azetidine-1-carboxylate], the IC50 came out at 4.1 µM.

As for `O=C(c1ccc2c(c1)C(=O)C(C(=O)C1CC1)C2=O)c1ccc2c(c1)C(=O)C(C(=O)C1CC1)C2=O` (stereo not shown) [Example 401], the inhibition at 1 µM under setting [1] was found to be 22%. Besides, the inhibition at 3 µM under setting [2] was 23%.

For the molecule `O=C1CC(=O)c2cc(-c3ccc4c(c3)C(=O)CC4=O)ccc21` [Example 75, 1h,1′h,2h,2′h,3h,3′h-[5,5′-biindene]-1,1′,3,3′-tetrone], under setting [3], the inhibition at 5 µM was determined as 54% and the inhibition at 10 µM came to 85%.

Regarding `COC(=O)N1CCC[C@H]1C(=O)C1C(=O)c2ccc(C(=O)c3ccc4c(c3)C(=O)C(C(=O)[C@@H]3CCCN3C(=O)OC)C4=O)cc2C1=O` (stereo partly drawn) [Example 114, methyl (2S)-2-(5-{2-[(2S)-1-(methoxycarbonyl)pyrrolidine-2-carbonyl]-1,3-dioxo-2,3-dihydro-1H-indene-5-carbonyl}-1,3-dioxo-2,3-dihydro-1H-indene-2-carbonyl)pyrrolidine-1-carboxylate], the IC50 turned out to be 2.5 µM. For the same molecule, under setting [3], the inhibition at 5 µM was found to be 76% and the inhibition at 10 µM is 91%.

Turning to `CC1(C)O[C@H]2O[C@@H](/C(O)=C3\C(=O)c4ccc(C(=O)c5ccc6c(c5)C(=O)/C(=C(\O)[C@@H]5O[C@@H]7OC(C)(C)O[C@@H]7[C@H]7OC(C)(C)O[C@@H]75)C6=O)cc4C3=O)[C@H]3OC(C)(C)O[C@@H]3[C@H]2O1` [Example 135, 5-{1,3-dioxo-2-[(1S,2R,6R,8R,9S)-4,4,11,11-tetramethyl-3,5,7,10,12-pentaoxatricyclo[7.3.0.0^2,^6]dodecane-8-carbonyl]-2,3-dihydro-1H-indene-5-carbonyl}-2-[(1S,2R,6R,8R,9S)-4,4,11,11-tetramethyl-3,5,7,10,12-pentaoxatricyclo[7.3.0.0^2,^6]dodecane-8-carbonyl]-2,3-dihydro-1H-indene-1,3-dione], the IC50 was determined as 3.8 µM. Further, under setting [3], the inhibition at 5 µM was determined as 79% and the inhibition at 10 µM is 88%.

For the molecule `COCCOCCC(=O)C1C(=O)c2ccc(Oc3ccc4c(c3)C(=O)C(C(=O)CCOCCOC)C4=O)cc2C1=O` (stereo not shown) [Example 383, 2-[3-(2-methoxyethoxy)propanoyl]-5-({2-[3-(2-methoxyethoxy)propanoyl]-1,3-dioxo-2,3-dihydro-1H-inden-5-yl}oxy)-2,3-dihydro-1H-indene-1,3-dione], the inhibition at 1 µM under setting [1] was found to be 20%. For the same molecule, the inhibition at 3 µM under setting [2] was 45%.

For `O=C(Cc1cccc(F)c1F)C1C(=O)c2ccc(Oc3ccc4c(c3)C(=O)C(C(=O)Cc3cccc(F)c3F)C4=O)cc2C1=O` (stereo not shown) [Example 260, 2-[2-(2,3-difluorophenyl)acetyl]-5-({2-[2-(2,3-difluorophenyl)acetyl]-1,3-dioxo-2,3-dihydro-1H-inden-5-yl}oxy)-2,3-dihydro-1H-indene-1,3-dione], the inhibition at 1 µM under setting [1] is 11%. The inhibition at 3 µM under setting [2] was determined as 46%.

`O=C(c1ccc2c(c1)C(=O)C(C(=O)Cn1cnnn1)C2=O)c1ccc2c(c1)C(=O)C(C(=O)Cn1cnnn1)C2=O` (stereo not shown) [Example 168, 5-{1,3-dioxo-2-[2-(1H-1,2,3,4-tetrazol-1-yl)acetyl]-2,3-dihydro-1H-indene-5-carbonyl}-2-[2-(1H-1,2,3,4-tetrazol-1-yl)acetyl]-2,3-dihydro-1H-indene-1,3-dione]: the IC50 came to 4.3 µM. Moreover, under setting [3], the inhibition at 5 µM is 68% and the inhibition at 10 µM is 89%.

As to `CC(C)(C)OC(=O)N1C[C@H](F)C[C@H]1C(=O)C1C(=O)c2ccc(C(=O)c3ccc4c(c3)C(=O)C(C(=O)[C@@H]3C[C@@H](F)CN3C(=O)OC(C)(C)C)C4=O)cc2C1=O` (stereo partly drawn) [Example 113, tert-butyl (2S,4R)-2-(5-{2-[(2S,4R)-1-[(tert-butoxy)carbonyl]-4-fluoropyrrolidine-2-carbonyl]-1,3-dioxo-2,3-dihydro-1H-indene-5-carbonyl}-1,3-dioxo-2,3-dihydro-1H-indene-2-carbonyl)-4-fluoropyrrolidine-1-carboxylate], the IC50 is 5.4 µM. In addition, under setting [3], the inhibition at 5 µM worked out at 68% and the inhibition at 10 µM came to 86%.

`O=C(c1ccc2c(c1)C(=O)C(C(=O)C1CCCS1(=O)=O)C2=O)c1ccc2c(c1)C(=O)C(C(=O)C1CCCS1(=O)=O)C2=O` (stereo not shown) [Example 371, 2-{5-[2-(1,1-dioxo-1λ^6-thiolane-2-carbonyl)-1,3-dioxo-2,3-dihydro-1H-indene-5-carbonyl]-1,3-dioxo-2,3-dihydro-1H-indene-2-carbonyl}-1λ^6-thiolane-1,1-dione]: under setting [1], the inhibition at 1 µM came out at 7%. Besides, the inhibition at 3 µM under setting [2] worked out at 11%.

For `CC(C)(C)CC(=O)NCC(=O)C1C(=O)c2ccc(C(=O)c3ccc4c(c3)C(=O)C(C(=O)CNC(=O)CC(C)(C)C)C4=O)cc2C1=O` (stereo not shown) [Example 185, N-[2-(5-{2-[2-(3,3-dimethylbutanamido)acetyl]-1,3-dioxo-2,3-dihydro-1H-indene-5-carbonyl}-1,3-dioxo-2,3-dihydro-1H-inden-2-yl)-2-oxoethyl]-3,3-dimethylbutanamide], the IC50 worked out at 4.4 µM. Also, under setting [3], the inhibition at 5 µM turned out to be 89% and the inhibition at 10 µM was determined as 94%.

As for `C[C@H](NC(=O)C1C(=O)c2ccc(C(=O)c3ccc4c(c3)C(=O)C(C(=O)N[C@@H](C)C(=O)O)C4=O)cc2C1=O)C(=O)O` (stereo partly drawn) [Example 316, (2S)-2-{[5-(2-{[(1S)-1-carboxyethyl]carbamoyl}-1,3-dioxo-2,3-dihydro-1H-indene-5-carbonyl)-1,3-dioxo-2,3-dihydro-1H-inden-2-yl]formamido}propanoic acid], the inhibition at 1 µM under setting [1] stood at 25%. Moreover, under setting [2], the inhibition at 3 µM was 50%.

As to `O=C(c1ccc2c(c1)C(=O)C(C(=O)Nc1ccccc1)C2=O)c1ccc2c(c1)C(=O)C(C(=O)Nc1ccccc1)C2=O` (stereo not shown) [Example 14, 5,5′-carbonylbis(1,3-dioxo-indan-2-carboxylic acid phenylamide)], the IC50 came to 1 µM. For the same molecule, the inhibition at 30 µM (30 μM inhibitor, read-out: % inhibition of PF4 tetramer formation at single concentration of inhibitor) amounted to 96%.

In the case of `O=C(O)CNC(=O)C1C(=O)c2ccc(S(=O)(=O)c3ccc4c(c3)C(=O)C(C(=O)NCC(=O)O)C4=O)cc2C1=O` (stereo not shown) [Example 311, 2-{[5-({2-[(carboxymethyl)carbamoyl]-1,3-dioxo-2,3-dihydro-1H-inden-5-yl}sulfonyl)-1,3-dioxo-2,3-dihydro-1H-inden-2-yl]formamido}acetic acid], under setting [3], the inhibition at 10 µM was found to be 73%.

In the case of `O=C(NCC1CCS(=O)(=O)C1)C1C(=O)c2ccc(S(=O)(=O)c3ccc4c(c3)C(=O)C(C(=O)NCC3CCS(=O)(=O)C3)C4=O)cc2C1=O` (stereo not shown) [Example 358, N-[(1,1-dioxo-1λ^6-thiolan-3-yl)methyl]-5-[(2-{[(1,1-dioxo-1λ^6-thiolan-3-yl)methyl]carbamoyl}-1,3-dioxo-2,3-dihydro-1H-inden-5-yl)sulfonyl]-1,3-dioxo-2,3-dihydro-1H-indene-2-carboxamide], the inhibition at 1 µM under setting [1] stood at 24%. Under setting [2], the inhibition at 3 µM came out at 46%.

On to `CC(C)(C)OC(=O)N1CCC[C@H]1C(=O)C1C(=O)c2ccc(C(=O)c3ccc4c(c3)C(=O)C(C(=O)[C@@H]3CCCN3C(=O)OC(C)(C)C)C4=O)cc2C1=O` (stereo partly drawn) [Example 111, tert-butyl (2S)-2-(5-{2-[(2S)-1-[(tert-butoxy)carbonyl]pyrrolidine-2-carbonyl]-1,3-dioxo-2,3-dihydro-1H-indene-5-carbonyl}-1,3-dioxo-2,3-dihydro-1H-indene-2-carbonyl)pyrrolidine-1-carboxylate], for which the IC50 turned out to be 0.5 µM. Moreover, under setting [3], the inhibition at 5 µM is 100% and the inhibition at 10 µM turned out to be 100%.

For the molecule `O=C1c2ccc(Oc3ccc4c(c3)C(=O)C(C(=O)C3CCC3)C4=O)cc2C(=O)C1C(=O)C1CCC1` (stereo not shown) [Example 297, 2-cyclobutanecarbonyl-5-[(2-cyclobutanecarbonyl-1,3-dioxo-2,3-dihydro-1H-inden-5-yl)oxy]-2,3-dihydro-1H-indene-1,3-dione], the IC50 was determined as 1.74 µM. In addition, the inhibition at 1 µM under setting [1] was 38%. The inhibition at 3 µM under setting [2] was determined as 100%.

Consider `O=C(c1ccc2c(c1)C(=O)C(C(=O)Cc1ccccc1)C2=O)c1ccc2c(c1)C(=O)C(C(=O)Cc1ccccc1)C2=O` (stereo not shown) [Example 190, 5-[1,3-dioxo-2-(2-phenylacetyl)-2,3-dihydro-1H-indene-5-carbonyl]-2-(2-phenylacetyl)-2,3-dihydro-1H-indene-1,3-dione], for which, under setting [3], the inhibition at 5 µM was determined as 79% and the inhibition at 10 µM turned out to be 86%.

Values taken from patent US20250281424A1 (New York Blood Center, Inc, priority 2020, published 2025).
